Experimental data published in paper PMC3458012, “Gliadin Peptides Induce Tissue Transglutaminase Activation and ER-Stress through Ca^2+ Mobilization in Caco-2 Cells” (PLoS ONE, 2012).
Ends that are not written are not given here.

What was measured:
Caco-2 cells = format: cell-based
Experimental: Intracellular Ca^2+ concentration ([Ca^2+]i) was measured in Caco-2 cells by single cell computer-assisted videoimaging using the Ca^2+ indicator Fura-2 acetoxymethyl ester, as previously described, [22]. Gliadin peptides were loaded at concentrations between 0.2 and 20 µg/ml for 30 min at 37°C in normal Krebs solution containing the following (in mM): 5.5 KCl, 160 NaCl, 1.2 MgCl2, 1.5 CaCl2, 10 glucose, and 10 Hepes-NaOH, pH 7.4. To selectively deplete intracellular Ca^2+ stores, experiments were performed in the presence of thapsigargin (THP) (1 µM), an irreversible and selective inhibitor of the sarco(endo)plasmic reticulum Ca^2+ ATPase, and in the presence of the mitochondrial uncoupler carbonylcyanide-p-trifluoromethoxyphenylhydrazone (FCCP) (300 nm).

intracellular tTG [1] = assay: Microplate assay of tTG transamidating activity on cell lysates; format: cell-based; details: Caco-2 cells
Experimental: (§1) In situ tTG activity was visualized by using the tTG substrate pentylamine-biotin (Euroclone, Milan, Italy) as reported elsewhere. Caco-2 cells were treated for 30 min with 10 µM ionomycin (Sigma-Aldrich, Milan, Italy), or with different amounts of gliadin peptides, or with 1 µM THP, in the presence of 0.5 mM pentylamine-biotin, before being processed for microscopy observation. To visualize biotin-labeled p31–43 and p57–68 in the cells, peptides needed to be used at a concentration of 0.2 mM. […] Pentylamine-biotin was also used to quantify the tTG transamidating activity by a microplate assay. Briefly, after 30 min of treatment with 20 µg/ml gliadin peptides, or with 1 µM THP, cells were lysed and proteins (25 µg) were coated into the wells of a 96-well plate. The wells were blocked with 10% bovine serum albumin then incubated with 1∶5000 peroxidase-conjugated streptavidin (Euroclone) in 5% bovine serum albumin. To reveal peroxidase activity, 3,3′,5,5′-tetramethylbenzidine (Sigma-Aldrich, Milan, Italy) was added to each well and, after stopping the reaction with H2SO4, absorbances were read at 450 nm.

intracellular tTG [2] = assay: In situ tTG transamidating activity, pentylamine-biotin incorporation, microscopy; format: cell-based; details: Caco-2 cells; for In situ tTG crosslinking activity (fluorescence of pentylamine-biotin incorporation): 30 min, complete medium, peptides 20 µg/ml, ionomycin 10 µM, THP 1 µM, 0.5 mM pentylamine-biotin
Experimental: as §1

GRP78 [3] = assay: GRP78 mRNA by real-time RT-PCR; format: cell-based, human; details: Caco-2 cells, 24 h, peptides 20 µg/ml, THP 1 µM, normalized to GAPDH
GRP78 [4] = assay: GRP78 protein level by western blot; format: cell-based; details: Caco-2 cells, 24 h, THP 1 µM, normalized to tubulin
Experimental: (§2) Cells were washed with phosphate-buffered saline solution and mechanically harvested in lysis buffer, consisting of 20 mM Tris-HCl, pH 7.5, 150 mM NaCl, 1 mM EDTA, 1 mM dithiotreitol, 0.1% sodium dodecyl sulphate, 1% triton X-100, 1 mM ortovanadate, and inhibitors cocktail (Sigma-Aldrich). After 30 min of incubation on ice, cell extracts were centrifuged at 12,000 g for 30 min at 4°C, to remove cell debris, then 75 µg of total proteins were separated by 10% sodium dodecyl sulphate-polyacrylamide gel electrophoresis and transferred to a membrane. To detect tTG, the blot was treated as described elsewhere. To detect GRP78 and CHOP, the blots were treated with 5% skim milk in phosphate-buffered saline overnight at 4°C, then incubated for 2 h with an anti-GRP78 rabbit polyclonal antibody (H-129) (1∶500; Santa Cruz, CA, USA), or with an anti-CHOP mouse monoclonal antibody (1∶1,500; Santa Cruz), respectively, in phosphate-buffered saline containing 0.1% tween-20. After washing, the blots were incubated for 1 h at room temperature with an anti-rabbit-peroxidase secondary antibody (1∶10,000; Bio-Rad Laboratories), or with an anti-mouse-peroxidase secondary antibody (1∶10,000; Bio-Rad Laboratories), respectively.

CHOP [5] = assay: CHOP mRNA by real-time RT-PCR; format: cell-based, human; details: Caco-2 cells, 24 h, peptides 20 µg/ml, THP 1 µM, normalized to GAPDH
CHOP [6] = assay: CHOP protein level by western blot; format: cell-based; details: Caco-2 cells, 24 h, peptides 20 µg/ml, THP 1 µM, normalized to tubulin
Experimental: as §2

## QLQPFPQPQLPY [p57–68]
Caco-2 cells
  EC50 of [Ca2+]i increase: 0.9 µg/mL

## NCCSSCCN [cystamin]
Intracellular tTG [1]; microplate assay, three experiments in triplicate
  Effect of cystamin pretreatment on tTG activity induced by ionomycin or p31–43: significant reduction of tTG activity
Intracellular tTG [2]; cystamin 200 µM added 5 min before treatment
  Inhibition of in situ tTG activation induced by ionomycin and p31–43: inhibited the tTG activation

## C/C=C(/C)C(=O)O[C@H]1C(C)=C2[C@H]([C@@H]1OC(=O)CCCCCCC)[C@@](C)(OC(C)=O)C[C@H](OC(=O)CCC)[C@@]1(O)[C@H]2OC(=O)[C@@]1(C)O [THP, thapsigargin]
GRP78 [3]
  Increase of GRP78 mRNA expression with respect to untreated cells: about 30 fold
Intracellular tTG [1]; 30 min, peptides 20 µg/ml or THP 1 µM, 25 µg lysate, absorbance 450 nm, at least 3 experiments in triplicate
  Increase of tTG activity versus cells exposed to pentylamine-biotin alone: similar
GRP78 [4]
  Increase of GRP78 protein expression: about five-fold
CHOP [5]
  Increase of CHOP mRNA expression: about 14 fold
Intracellular tTG [2]
  In situ tTG crosslinking activity (fluorescence of pentylamine-biotin incorporation): sufficient to activate intracellular tTG
Intracellular tTG [2]; phosphate-buffered saline without Ca2+ and Mg2+
  In situ tTG activation in Ca2+-free medium: sufficient to activate intracellular tTG
CHOP [6]
  Increase of CHOP protein expression: three-fold

## LPQFEEIRNLALQTLPAM [p229–246]
Intracellular tTG [2]
  In situ tTG crosslinking activity (fluorescence of pentylamine-biotin incorporation): fluorescence intensity did not increase

## LGQQQPFPPQQPY [p31–43]
Caco-2 cells
  EC50 of [Ca2+]i increase: 0.2 µg/mL

## QQPQDAVQPF [pCTR, irrelevant control peptide … from durum wheat]
Caco-2 cells; Caco-2 cells, 20 µg/ml, normal Krebs solution
  [Ca2+]i increase with respect to the basal value: did not affect
Intracellular tTG [2]
  In situ tTG crosslinking activity (fluorescence of pentylamine-biotin incorporation): fluorescence intensity did not increase

## PLIRPLLARPAK [pHTP, irrelevant control peptide, 537–548 region of the human thyroid peroxidase]
Intracellular tTG [2]
  In situ tTG crosslinking activity (fluorescence of pentylamine-biotin incorporation): fluorescence intensity did not increase
